Key:
HUVEC [1] = assay: VEGF-induced HUVEC proliferation assay; format: cell-based, human; conditions: subconfluent HUVEC on gelatine, compared to no peptide treatment, n=3
Description: FIG. 3. TCPTP activity controls VEGF-dependent responses in endothelial cells. (A) HUVEC were transfected with the constitutively active TCPTP (TC37) or vector control (pCG), stimulated or not with VEGF, and stained for VEGFR2 (red) and nuclei (blue) after fixation and permeabilization. Arrows indicate VEGFR2 vesicles. (B) HUVEC were treated as in (A) and subjected to trypsin digestion on ice. VEGFR2 protected from trypsin (=internalized pool) was detected by immunoblotting. The intensities of VEGFR2 bands were quantified and are expressed relative to pCG-VEGF control. A representative experiment out of 2 with similar results is shown. (C) HUVEC were transfected with no oligo, siRNA against TCPTP or a control siRNA, and TCPTP expression was measured using immunoblotting. […] (D) HUVEC were transfected as in (A) and chemotaxis towards VEGF was measured using a Transwell assay for 4 hours. […] Number of migrated cells was counted (mean±SEM, n=3).
(§1) Cell proliferation and survival assays. The number of viable HUVEC was analyzed with WST-1 reagent (Roche). Cell proliferation was measured with BrdU assay (Cell proliferation ELISA Biotrak system, Amersham) from siRNA-transfected HUVEC grown in RPMI1640+1% FBS+2 mM L-glutamine supplemented with 80 ng/ml VEGF.

VEGFR2 = assay: Immunoblot of phosphorylated VEGFR2 in HUVEC lysates; format: cell-based, human; conditions: for effect on VEGFR2 phosphorylation in confluent cells: confluent HUVEC, FIG. 10A; for effect on VEGFR2 phosphorylation in confluent cells / effect of TAT peptides on VEGFR2 phosphorylation: peptide 200 nM
Description: (§2) FIG. 4. α1 integrin activates TCPTP and attenuates VEGFR2 signalling. (A) Serum-starved subconfluent HUVEC were treated for 1 h with α1 integrin cytoplasmic tail fusion peptide (α1TAT) or TAT-scramble control fusion peptide (ScrTAT) (both at 200 nM) followed by VEGF-induction (100 ng/ml, 15 min) where indicated. Cell lysates were resolved on SDS-PAGE and immunoblotted for phosphorylated VEGFR2 (or tubulin as a control). (B) HUVEC were treated as in (A) and VEGFR2 kinase activity (mean±SD, n=3) was measured from the cell lysates. **, p<0.01. (C) Recombinant, purified TCPTP was incubated with α1 or α2 cytoplasmic tail peptides (L-amino acids) or with α1 and scrambled TAT peptides (D-amino acids) and analyzed for phosphatase activity (mean±SD, n=3).
(§3) FIG. 10. […] (A) Serum-starved HUVEC were plated to confluency on gelatin and treated for 1 h with α1 integrin cytoplasmic tail fusion peptide (α1TAT) or TAT-scramble control fusion peptide (ScrTAT) (both at 200 nM) or not treated, followed by VEGF-induction (15 min) when indicated. Cell lysates were immunoblotted for phosphorylated VEGFR2 (or tubulin as a control). (B) Confluent HUVEC on gelatin were treated with VEGF in the presence or absence of α1TAT or ScrTAT peptide and the number of live cells was detected using WST-1 reagent (mean±SD, n=3). (C) α1TAT treatment has no effect on internalization of VEGFR2 in confluent HUVEC. HUVEC were plated to confluency on gelatin, stimulated or not with the TAT peptides (200 nM) and VEGF, and treated with trypsin on ice. Cells were lysed after inactivation of trypsin and the lysates were immunoblotted for detection of VEGFR2 protected from trypsin (=internalized pool). The intensity of VEGFR2 bands was quantitated using densitometry (a representative experiment out of 3 with similar results is shown).

[2] = biological target: T1, Recombinant, purified TCPTP (Homo sapiens, UniProt P17706); assay: In vitro phosphatase assay with purified TCPTP protein (diFMUP substrate); format: biochemical; conditions: TAT peptides of D-amino acids, FIG. 4C
T1 construct: made in house
T1 sequence (P17706 1-387 isoform P17706-2): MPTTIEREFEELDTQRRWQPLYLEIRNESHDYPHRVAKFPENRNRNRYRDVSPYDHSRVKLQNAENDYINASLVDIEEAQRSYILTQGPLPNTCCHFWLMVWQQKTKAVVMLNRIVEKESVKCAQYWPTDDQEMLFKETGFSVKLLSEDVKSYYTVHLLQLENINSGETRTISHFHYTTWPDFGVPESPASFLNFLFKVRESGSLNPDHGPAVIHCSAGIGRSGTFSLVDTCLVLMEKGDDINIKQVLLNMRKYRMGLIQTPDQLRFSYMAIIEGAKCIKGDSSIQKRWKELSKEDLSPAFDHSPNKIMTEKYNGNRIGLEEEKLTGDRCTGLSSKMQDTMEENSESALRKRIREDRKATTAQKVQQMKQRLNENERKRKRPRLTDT
Description: as §2
Phosphatase and kinase assays. Phosphatase assays were performed as described (8). Briefly, HUVEC were plated to collagen or gelatin coated plates and allowed to adhere for 1 h. TCPTP, SHP2 and control immunocomplexes were isolated from cell lysates, resuspended in the phosphatase assay buffer and assayed for phosphatase activity using 6,8-difluoro-4-methylumbelliferyl phosphate; Molecular Probes) as a substrate in the presence of a serine/threonine phosphatase inhibitor cocktail (Sigma). Thereafter, the antigens from the beads were used for immunoblotting. […]

HUVEC [3] = assay: Survival of confluent HUVEC (WST-1); format: cell-based, human; conditions: confluent HUVEC on gelatin, WST-1, FIG. 10B
Description: as §3, §1

Sequence | inhibition of VEGF-induced proliferation (HUVEC [1]) | effect on VEGFR2 phosphorylation in confluent cells (VEGFR2) | effect of TAT peptides on VEGFR2 phosphorylation (VEGFR2; subconfluent HUVEC, FIG. 4A) | activation of TCPTP phosphatase activity [2] | effect on survival of HUVEC in confluent cells (HUVEC [3]) | VEGF-induced autophosphorylation of VEGFR2 at tyrosine 1214 (VEGFR2; subconfluent HUVEC, peptide 200 nM 1 h, VEGF 100 ng/ml 15 min, FIG. 4A)
YGRKKRRQRRRLKGWRFKLKPKFKEMK (SEQ ID NO 8) [ScrTAT, reference compound] | 4±4% | no effects | induced a clear phosphorylation | no effect | no effects | 
YGRKKRRQRRRWKLGFFKRPLKKKMEK (SEQ ID NO 3) [α1TAT] | 74±8% | no effects | effectively attenuated | very good activator | no effects | markedly inhibited
